US20250346556A1, “IMPROVEMENTS IN OR RELATING TO ORGANIC COMPOUNDS” (Givaudan SA, priority 2019, published 2025)

What was measured:
Format in all cases: in vivo
[1] = Taste evaluation, comparison with further derivatives, by 5 trained panellists; details: 20 ppm in aqueous NaCl solution (0.5% by weight); compared with 20 ppm compound Ia
Procedure: An aqueous NaCl solution (0.5% by weight) was prepared. To this base was added: • a) 20 ppm of the compound Ia (sample 7a); • b) 20 ppm of the compound Ib (sample 7b); • c) 20 ppm of the compound Ic (sample 7c).
The tastes of the three samples 7a, 7b and 7c have been evaluated by 5 trained panellists.

[2] = Taste evaluation of amide ester analogues by four experienced tasters; details: 20 ppm in aqueous NaCl (0.5% by weight) and MSG (0.05% by weight)
Procedure: An aqueous solution of NaCl (0.5% by weight) and MSG (0.05% by weight) was prepared. To this base was added: • a) 20 ppm of the mixture of the compound (Id+Ie) in a ratio 1:2 (sample 8a); • b) 20 ppm of the compound If (sample 8b).
A group of four experienced tasters compared the samples 8a and 8b with the pure base.

[3] = Taste evaluation, comparison with MSG, by 5 trained panellists
Procedure: An aqueous NaCl solution (0.5% by weight) was prepared. To this base was added: • a) 30 ppm of the compound Ia (sample 6a); • b) 200 ppm of MSG (sample 6b, benchmark).
The tastes of the two samples 6a and 6b have been evaluated by 5 trained panellists. They were asked to rate the intensity of sample 6a as difference to sample 6b and to describe the overall effect. Typically, the following descriptors are used to describe the effect: umami, salty, bitter, overall sweet.

For C/C=C(\C)C(=O)NCCCCNC(=O)/C=C/c1ccc(OC)cc1 [compound Ib, (E)-N-(4-((E)-3-(4-methoxyphenyl)acrylamido)butyl)-2-methylbut-2-enamide], the “taste description in comparison to sample 7a” value [1] was “more umami, stronger and more lingering, more sweet, but having an off note, animalic, floral sweet”.
In the case of C/C=C(\C)C(=O)NCCCCOC(=O)C=Cc1ccccc1 [compound If, 4-((E)-2-methylbut-2-enamido)butyl cinnamate], the additional taste description [2] is reported as “a pleasant taste experience” and the “umami compared with the pure base” value ([2]; four tasters, unanimous) is reported as “more umami than the base”.
With C/C=C(\C)C(=O)NCCCCNC(=O)C=Cc1ccccc1 [compound Ia, (E)-N-(4-cinnamamidobutyl)-2-methylbut-2-enamide] the overall preference ([3]; 30 ppm in 0.5% NaCl versus 200 ppm MSG (sample 6b)) was “preferred over sample 6b”, the “umami on bitter level versus benchmark” value ([3]; 30 ppm in 0.5% NaCl versus 200 ppm MSG (sample 6b, benchmark)) was “a little higher than benchmark” and the taste description ([3]; 30 ppm in aqueous NaCl solution (0.5% by weight), 5 trained panellists) was “umami, brothy and longlasting”.
With C/C=C(\C)C(=O)NCCCCNC(=O)c1ccc(OC)cc1 [compound Ic, (E)-4-methoxy-N-(4-(2-methylbut-2-enamido)butyl)benzamide] the “taste description in comparison to sample 7a” value [1] was “more umami and cleaner umami than sample 7a”.
